Bridge positions count the residues as written; N and C are the ends. Square brackets hold non-standard residues; d marks the D form. Peptide text beside a SMILES is read from it. * marks the point of attachment. ξ: configuration not given here. Tyr(3-NO2) = N[C@@H](Cc1ccc(O)c([N+](=O)[O-])c1)C(=O)O; Phe(4-COOH) = N[C@@H](Cc1ccc(C(=O)O)cc1)C(=O)O; Bip = N[C@@H](Cc1ccc(-c2ccccc2)cc1)C(=O)O; pY = N[C@@H](Cc1ccc(OP(=O)(O)O)cc1)C(=O)O; Phe(3-OMe) = COc1cccc(C[C@H](N)C(=O)O)c1; Phe(3-Me) = Cc1cccc(C[C@H](N)C(=O)O)c1; Val(3-OH) = CC(C)(O)[C@H](N)C(=O)O; h4Pal = N[C@@H](CCc1ccncc1)C(=O)O; 3Pal = N[C@@H](Cc1cccnc1)C(=O)O; 4Pal = N[C@@H](Cc1ccncc1)C(=O)O; 2Thi = N[C@@H](Cc1cccs1)C(=O)O; Cha = N[C@@H](CC1CCCCC1)C(=O)O; Cit = NC(=O)NCCC[C@H](N)C(=O)O; Ile(3ξ) = CCC(C)[C@H](N)C(=O)O; Thr(3ξ) = CC(O)[C@H](N)C(=O)O; Carboxymethyl = O=C(O)C*; NMeA = CN[C@@H](C)C(=O)O; Nle = CCCC[C@H](N)C(=O)O; Orn = NCCC[C@H](N)C(=O)O; Dab = NCC[C@H](N)C(=O)O
biological target: T1, PE-labeled human PD-L1-Ig binding to Jurkat cell line over-expressing human PD-1 (Jurkat-PD-1) (Homo sapiens, UniProt Q15116); assay: Jurkat-PD-1 Cell Binding High-Content Screening Assay (CBA): Method 1; settings: Jurkat HPDL1 PD1 IC50 (uM) (Method 1), Jurkat-hPD-1 cells, PE-labeled PD-L1-Ig 20 nM final
T1 construct: expressed in transfected cells; host or cells: Jurkat
T1 sequence (Q15116 25-288): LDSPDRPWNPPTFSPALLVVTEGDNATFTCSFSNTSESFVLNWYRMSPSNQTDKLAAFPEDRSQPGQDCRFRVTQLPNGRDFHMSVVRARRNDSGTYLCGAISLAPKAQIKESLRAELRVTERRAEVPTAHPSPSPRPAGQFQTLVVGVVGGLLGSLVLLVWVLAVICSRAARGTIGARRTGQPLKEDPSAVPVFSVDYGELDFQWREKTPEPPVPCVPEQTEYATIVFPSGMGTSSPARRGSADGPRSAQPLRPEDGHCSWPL

| Compound | IC50 [µM] |
| --- | --- |
| CC(C)C[C@@H]1NC(=O)[C@H](Cc2c[nH]c3ccccc23)NC(=O)[C@H](CC(=O)O)NC(=O)[C@H](Cc2ccc(OP(=O)(O)O)cc2)NC(=O)[C@H](Cc2ccccc2)NC(=O)CSC[C@@H](C(=O)N[C@@H](C)C(N)=O)NC(=O)[C@H](CO)NC(=O)[C@H](C(C)C)NC(=O)[C@H](CC(C)C)NC(=O)[C@H](CC(N)=O)NC(=O)[C@@H](C)NC(=O)[C@H](C)N(C)C(=O)[C@H](C(C)C)NC(=O)[C@H](Cc2ccc(-c3ccccc3)cc2)NC1=O [Compound 1756] ({CH2CO}-F[pY]DWL[Bip]V[NMeA][dA]NLVSCA-NH2; thioether N-14) | 0.03 |

same assay, conditions: Jurkat-hPD-1 cells, PE-labeled PD-L1-Ig 20 nM final; read-out: Jurkat HPDL1 PD1 IC50 (uM) (Method 1)

| Compound | IC50 [µM] |
| --- | --- |
| CC(=O)NCCCC[C@@H]1NC(=O)[C@H](C(C)C)NC(=O)[C@H](CC2CCCCC2)NC(=O)[C@H](CCN)NC(=O)[C@@H](CC(C)C)NC(=O)[C@H](C)N(C)C(=O)[C@H](CCC(N)=O)NC(=O)[C@H](Cc2ccc(-c3ccccc3)cc2)NC(=O)[C@H](Cc2ccc(OCC(=O)O)cc2)NC(=O)[C@H](Cc2cccc(C)c2)NC(=O)[C@H](CC(=O)O)NC(=O)[C@H](Cc2ccc(OCC(=O)O)cc2)NC(=O)[C@H](Cc2ccncc2)NC(=O)CSC[C@@H](C(=O)N[C@@H](CCN)C(N)=O)NC1=O [Compound 2203] ({CH2CO}-[4Pal]Y(Carboxymethyl)D[Phe(3-Me)]Y(Carboxymethyl)[Bip]Q[NMeA][dL][Dab][Cha]VK(Ac)C[Dab]-NH2; thioether N-14) | 0.01 |
| CC(C)C[C@@H]1NC(=O)[C@H](Cc2c[nH]c3ccccc23)NC(=O)[C@H](CC(=O)O)NC(=O)[C@H](Cc2ccc(O)c([N+](=O)[O-])c2)NC(=O)[C@H](Cc2ccccc2)NC(=O)CSC[C@@H](C(=O)N[C@@H](C)C(N)=O)NC(=O)[C@H](CO)NC(=O)[C@H](C(C)C)NC(=O)[C@H](CC(C)C)NC(=O)[C@H](CC(N)=O)NC(=O)[C@@H](C)NC(=O)[C@H](C)N(C)C(=O)[C@H](C(C)C)NC(=O)[C@H](Cc2ccc(-c3ccccc3)cc2)NC1=O [Compound 1738] ({CH2CO}-F[Tyr(3-NO2)]DWL[Bip]V[NMeA][dA]NLVSCA-NH2; thioether N-14) | 0.02 |
| CC(C)C[C@@H]1NC(=O)[C@H](CCCNC(=N)N)NC(=O)[C@@H](CC(C)C)NC(=O)[C@H](C)N(C)C(=O)[C@H](CCCNC(=N)N)NC(=O)[C@H](Cc2ccc(-c3ccccc3)cc2)NC(=O)[C@H](C(C)C)NC(=O)[C@H](Cc2c[nH]c3ccccc23)NC(=O)[C@H](CC(=O)O)NC(=O)[C@H](Cc2ccc(O)cc2)NC(=O)[C@H](CC(N)=O)NC(=O)CSC[C@@H](C(=O)NCC(N)=O)NC(=O)[C@H](CO)NC(=O)[C@H](C(C)C)NC1=O [Compound 1253] ({CH2CO}-NYDWV[Bip]R[NMeA][dL]RLVSCG-NH2; thioether N-14) | 0.03 |
| CC[C@H](C)[C@@H]1NC(=O)[C@H](Cc2ccc(-c3ccccc3)cc2)NC(=O)[C@H](C(C)C)NC(=O)[C@H](Cc2cccc(C)c2)NC(=O)[C@H](CC(=O)O)NC(=O)[C@H](Cc2ccc(C(=O)O)cc2)NC(=O)[C@H](Cc2ccc(OCC(=O)O)cc2)NC(=O)CSC[C@@H](C(=O)N[C@@H](C)C(N)=O)NC(=O)[C@H]([C@@H](C)O)NC(=O)[C@H](C(C)C)NC(=O)[C@H](CC(C)C)NC(=O)[C@H](CCN)NC(=O)[C@@H](CC(C)C)NC(=O)[C@H](C)N(C)C1=O [Compound 1572] ({CH2CO}-Y(Carboxymethyl)[Phe(4-COOH)]D[Phe(3-Me)]V[Bip]I[NMeA][dL][Dab]LVTCA-NH2; thioether N-14) | 0.01 |
| Cc1cccc(C[C@@H]2NC(=O)[C@H](CC(=O)O)NC(=O)[C@H](Cc3ccc(OCC(=O)O)cc3)NC(=O)[C@H]([C@@H](C)O)NC(=O)CSC[C@@H](C(N)=O)NC(=O)[C@H](CC(N)=O)NC(=O)[C@H](C(C)C)NC(=O)[C@H](CC3CCCCC3)NC(=O)[C@H](CC(N)=O)NC(=O)[C@@H](CC(C)C)NC(=O)[C@H](C)N(C)C(=O)[C@H](Cc3ccc(OCC(=O)O)cc3)NC(=O)[C@H](Cc3ccc(-c4ccccc4)cc3)NC(=O)[C@H](Cc3ccc(OCC(=O)O)cc3)NC2=O)c1 [Compound 1675] ({CH2CO}-TY(Carboxymethyl)D[Phe(3-Me)]Y(Carboxymethyl)[Bip]Y(Carboxymethyl)[NMeA][dL]N[Cha]VNC-NH2; thioether N-14) | 0.12 |
| CC(C)C[C@@H]1NC(=O)[C@H](CCCNC(=N)N)NC(=O)[C@@H](CC(C)C)NC(=O)[C@H](C)N(C)C(=O)[C@H](CCCNC(=N)N)NC(=O)[C@H](Cc2ccc(-c3ccccc3)cc2)NC(=O)[C@H](C(C)C)NC(=O)[C@H](Cc2c[nH]c3ccccc23)NC(=O)[C@H](CC(=O)O)NC(=O)[C@H](CCc2ccncc2)NC(=O)[C@H](Cc2ccccc2)NC(=O)CSC[C@@H](C(=O)N[C@@H](C)C(N)=O)NC(=O)[C@H]([C@@H](C)O)NC(=O)[C@H](C(C)C)NC1=O [Compound 1084] ({CH2CO}-F[h4Pal]DWV[Bip]R[NMeA][dL]RLVTCA-NH2; thioether N-14) | 0.09 |
| CC(C)C[C@@H]1NC(=O)[C@H](CCCN)NC(=O)[C@@H](CC(C)C)NC(=O)[C@H](C)N(C)C(=O)[C@H](CCCNC(=N)N)NC(=O)[C@H](Cc2ccc(-c3ccccc3)cc2)NC(=O)[C@H](C(C)C)NC(=O)[C@H](Cc2c[nH]c3ccccc23)NC(=O)[C@H](CC(=O)O)NC(=O)[C@H](Cc2ccc(O)cc2)NC(=O)[C@H](CC(N)=O)NC(=O)CSC[C@@H](C(=O)N[C@@H](CCC(=O)O)C(N)=O)NC(=O)[C@H]([C@@H](C)O)NC(=O)[C@H](C(C)C)NC1=O [Compound 1165] ({CH2CO}-NYDWV[Bip]R[NMeA][dL][Orn]LVTCE-NH2; thioether N-14) | 0.15 |
| CCC(C)[C@@H]1NC(=O)[C@H](Cc2ccc(-c3ccccc3)cc2)NC(=O)[C@H](C(C)C)NC(=O)[C@H](Cc2c[nH]c3ccccc23)NC(=O)[C@H](CC(=O)O)NC(=O)[C@H](Cc2ccc(O)cc2)NC(=O)[C@H](Cc2cccs2)NC(=O)CSC[C@@H](C(=O)N[C@@H](CCCNC(=N)N)C(N)=O)NC(=O)[C@H](C(C)O)NC(=O)[C@H](C(C)(C)O)NC(=O)[C@H](CC2CCCCC2)NC(=O)[C@H](CC(N)=O)NC(=O)[C@@H](CC(C)C)NC(=O)[C@H](C)N(C)C1=O (stereo partly drawn) [Compound 2172] ({CH2CO}-[2Thi]YDWV[Bip][Ile(3ξ)][NMeA][dL]N[Cha][Val(3-OH)][Thr(3ξ)]CR-NH2; thioether N-14) | 0.08 |
| COc1cccc(C[C@@H]2NC(=O)[C@H](CC(=O)O)NC(=O)[C@H](Cc3ccc(O)cc3)NC(=O)[C@H](CC(N)=O)NC(=O)CSC[C@@H](C(=O)N[C@@H](C)C(N)=O)NC(=O)[C@H]([C@@H](C)O)NC(=O)[C@H](C(C)C)NC(=O)[C@H](CC(C)C)NC(=O)[C@H](CCN)NC(=O)[C@@H](CC(C)C)NC(=O)[C@H](C)N(C)C(=O)[C@H](CCCNC(N)=O)NC(=O)[C@H](Cc3ccc(-c4ccccc4)cc3)NC(=O)[C@H](C(C)C)NC2=O)c1 [Compound 1231] ({CH2CO}-NYD[Phe(3-OMe)]V[Bip][Cit][NMeA][dL][Dab]LVTCA-NH2; thioether N-14) | 0.04 |
| CCC(C)[C@@H]1NC(=O)[C@H](Cc2ccc(-c3ccccc3)cc2)NC(=O)[C@H](C(C)C)NC(=O)[C@H](Cc2cccc(C)c2)NC(=O)[C@H](CC(=O)O)NC(=O)[C@H](Cc2ccc(OCC(=O)O)cc2)NC(=O)[C@H](C(C)O)NC(=O)CSC[C@@H](C(N)=O)NC(=O)[C@H](C(C)O)NC(=O)[C@H](C(C)C)NC(=O)[C@H](CC2CCCCC2)NC(=O)[C@H](CCN)NC(=O)[C@@H](CC(C)C)NC(=O)[C@H](C)N(C)C1=O (stereo partly drawn) [Compound 2250] ({CH2CO}-[Thr(3ξ)]Y(Carboxymethyl)D[Phe(3-Me)]V[Bip][Ile(3ξ)][NMeA][dL][Dab][Cha]V[Thr(3ξ)]C-NH2; thioether N-14) | 0.02 |
| CC(C)C[C@@H]1NC(=O)[C@H](Cc2c[nH]c3ccccc23)NC(=O)[C@H](CC(=O)O)NC(=O)[C@H](Cc2ccc(C(=O)O)cc2)NC(=O)[C@H](Cc2cccnc2)NC(=O)CSC[C@@H](C(=O)N[C@@H](C)C(N)=O)NC(=O)[C@H](CO)NC(=O)[C@H](C(C)C)NC(=O)[C@H](CC(C)C)NC(=O)[C@H](CCCCN)NC(=O)[C@@H](C)NC(=O)[C@H](C)N(C)C(=O)[C@H](CCC(=O)O)NC(=O)[C@H](Cc2ccc(-c3ccccc3)cc2)NC1=O [Compound 1761] ({CH2CO}-[3Pal][Phe(4-COOH)]DWL[Bip]E[NMeA][dA]KLVSCA-NH2; thioether N-14) | 0.03 |
| CCC(C)[C@@H]1NC(=O)[C@H](Cc2ccc(-c3ccccc3)cc2)NC(=O)[C@H](CC(C)C)NC(=O)[C@H](Cc2c[nH]c3ccccc23)NC(=O)[C@H](CC(=O)O)NC(=O)[C@H](Cc2ccc(C(=O)O)cc2)NC(=O)[C@H](Cc2ccc(OCC(=O)O)cc2)NC(=O)CSC[C@@H](C(=O)N[C@@H](CCN)C(N)=O)NC(=O)[C@H](CCC(N)=O)NC(=O)[C@H](C(C)C)NC(=O)[C@H](CC2CCCCC2)NC(=O)[C@H](CCN)NC(=O)[C@@H](CC(C)C)NC(=O)[C@H](C)N(C)C1=O (stereo partly drawn) [Compound 1927] ({CH2CO}-Y(Carboxymethyl)[Phe(4-COOH)]DWL[Bip][Ile(3ξ)][NMeA][dL][Dab][Cha]VQC[Dab]-NH2; thioether N-14) | 0.01 |
| CCCC[C@@H]1NC(=O)[C@H](CCCNC(=N)N)NC(=O)[C@@H](CC(C)C)NC(=O)[C@H](C)N(C)C(=O)[C@H](CCCNC(=N)N)NC(=O)[C@H](Cc2ccc(-c3ccccc3)cc2)NC(=O)[C@H](C(C)C)NC(=O)[C@H](Cc2c[nH]c3ccccc23)NC(=O)[C@H](CC(=O)O)NC(=O)[C@H](Cc2ccc(O)cc2)NC(=O)[C@H](CC(N)=O)NC(=O)CSC[C@@H](C(=O)N[C@@H](C)C(N)=O)NC(=O)[C@H]([C@@H](C)O)NC(=O)[C@H](C(C)C)NC1=O [Compound 1282] ({CH2CO}-NYDWV[Bip]R[NMeA][dL]R[Nle]VTCA-NH2; thioether N-14) | 0.13 |
| CC(C)C[C@@H]1NC(=O)[C@H](Cc2c[nH]c3ccccc23)NC(=O)[C@H](CC(=O)O)NC(=O)[C@H](Cc2ccc(O)cc2)NC(=O)[C@H](Cc2ccccc2)NC(=O)CSC[C@@H](C(=O)N[C@@H](C)C(N)=O)NC(=O)[C@H](CO)NC(=O)[C@H](CCCCN)NC(=O)[C@H](CC(C)C)NC(=O)[C@H](CC(N)=O)NC(=O)[C@@H](C)NC(=O)[C@H](C)N(C)C(=O)[C@H](C(C)C)NC(=O)[C@H](Cc2ccc(-c3ccccc3)cc2)NC1=O [Compound 1529] ({CH2CO}-FYDWL[Bip]V[NMeA][dA]NLKSCA-NH2; thioether N-14) | 0.05 |

Source: patent publication US20240409585A1, “MACROCYCLIC IMMUNOMODULATORS” (priority 2021, published 2024)
